Results as given in the NIST ThermoML archive (doi:10.1021/je300997v).

Assay: xn = mol fraction of the nth substance listed
Conditions: 101 kPa, Liquid; for viscosity: Capillary tube (Ostwald / Ubbelohde) method; for mass density: Pycnometric method; for electrical conductivity: conductivity meter

C[N+](C)(C)CCO.[Cl-] [choline chloride] + Oc1ccccc1
Conditions | electrical conductivity [S/m] | mass density [kg/m3] | viscosity [mPa·s]
293.2 K, x2 = 0.6667 | 0.14 | 1099.5 | 120.77
293.2 K, x2 = 0.75 | 0.238 | 1094.8 | 57.84
293.2 K, x2 = 0.8 | 0.275 | 1091.8 | 40.23
293.2 K, x2 = 0.8333 | 0.281 | 1089.8 | 31.96
293.2 K, x2 = 0.8571 | 0.273 | 1088.5 | 27.03
298.2 K, x2 = 0.6667 | 0.205 | 1096.7 | 90.33
298.2 K, x2 = 0.75 | 0.314 | 1092.1 | 44.64
298.2 K, x2 = 0.8 | 0.345 | 1089.3 | 31.55
298.2 K, x2 = 0.8333 | 0.347 | 1087 | 25.25
298.2 K, x2 = 0.8571 | 0.338 | 1085.2 | 21.43
303.2 K, x2 = 0.6667 | 0.265 | 1093 | 68.41
303.2 K, x2 = 0.75 | 0.388 | 1089 | 35.17
303.2 K, x2 = 0.8 | 0.421 | 1086 | 25.2
303.2 K, x2 = 0.8333 | 0.425 | 1083.8 | 19.75
303.2 K, x2 = 0.8571 | 0.409 | 1081.8 | 16.82
308.2 K, x2 = 0.6667 | 0.337 | 1090.1 | 53.43
308.2 K, x2 = 0.75 | 0.477 | 1085.8 | 28.22
308.2 K, x2 = 0.8 | 0.507 | 1081.9 | 20.25
308.2 K, x2 = 0.8333 | 0.508 | 1080.3 | 16.16
308.2 K, x2 = 0.8571 | 0.487 | 1078.2 | 13.76
313.2 K, x2 = 0.6667 | 0.416 | 1087.3 | 42.42
313.2 K, x2 = 0.75 | 0.576 | 1082.9 | 23.08
313.2 K, x2 = 0.8 | 0.602 | 1079.5 | 16.71
313.2 K, x2 = 0.8333 | 0.599 | 1076.1 | 13.44
313.2 K, x2 = 0.8571 | 0.574 | 1074.5 | 11.45
318.2 K, x2 = 0.6667 | 0.509 | 1084.3 | 34.34
318.2 K, x2 = 0.75 | 0.677 | 1079.5 | 19.14
318.2 K, x2 = 0.8 | 0.706 | 1076.3 | 14
318.2 K, x2 = 0.8333 | 0.696 | 1073.6 | 11.26
318.2 K, x2 = 0.8571 | 0.666 | 1071.7 | 9.46
